The subject of assay [1] is human colon cancer cells COL-2-JCK. The assay can be described thus: Inhibition of colony forming activity in human colon cancer cells. It counts as cell-based. To be noted: 1 μM test compound, 10 days, sum of colony areas vs control; for inhibition at 1 µM: Homo sapiens, 240 h, read-out: Inhibition Rate (%) against the colony forming activity. The method in brief:
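COL-2-JCK cells seeded at 300 cells/well and grown 10 days at 37 °C, 5% CO2 with compound at 1 μM final (0.1% DMSO). Colonies stained with crystal violet in formalin; inhibition % = (1 − treated/control colony area)×100.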

The subject of another assay is Balb/c mice. The assay can be described thus: Prevention of concanavalin A liver injury. The format is in vivo, mouse. Conditions: 10 mg/mL suspension at 10 mL/kg, 30 min prior to Con A, plasma 24 hr after Con A; for inhibition in vivo at 10000 µg/mL, 100 mg/kg: Mus musculus, po, 24 h. An outline of the steps:
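Female Balb/c mice, 6-8 weeks, 5/group; compound suspended at 10 mg/mL in 0.5% CMC, given orally at 10 mL/kg 30 min before i.v. Con A (2.0 mg/mL, 10 mL/kg). Plasma AST and ALT measured 24 hr after Con A; inhibitory rate calculated against vehicle and untreated groups.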

Where [2] appears, read: read-out: Preventing rate against liver injury, ALT (%).
Where [3] appears, read: read-out: Preventing rate against liver injury, AST (%).

Where a name gives a salt, the structure may show the parent alone. Read-outs that look alike come from different tables or passages of the source.

Regarding `O=C(Nc1ccc(-c2ccc([N+](=O)[O-])cc2)cc1)c1cc([N+](=O)[O-])ccc1Cl` [Example 9, N-[4-(4-Nitrophenyl)phenyl)-(2-chloro-5-nitrophenyl)carboxamide], the inhibition – broadly, the drop in the measured response relative to a control, in per cent – at 1 µM in assay [1] turned out to be 29%.
For the compound `CCCc1ccc(NC(=O)c2cc([N+](=O)[O-])ccc2Cl)cc1` [Example 15, N-(4-Propylphenyl)-(2-chloro-5-nitrophenyl)carboxamide], the inhibition in vivo at 10000 µg/mL, 100 mg/kg in the assay on Balb/c mice (setting [2]) worked out at 39%; with Balb/c mice (setting [3]), 54%. Also, in assay [1], the inhibition at 1 µM was determined as 14%.
As to `O=C(Nc1ccc(OC(F)(F)F)cc1)c1cc([N+](=O)[O-])ccc1Cl` [Example 18, N-(4-Trifluoromethyloxyphenyl)-(2-chloro-5-nitrophenyl)carboxamide], the inhibition in vivo at 10000 µg/mL, 100 mg/kg is 39.8% with Balb/c mice (setting [2]) and 24.1% in the assay on Balb/c mice (setting [3]).
Take `Cc1ccc(S(=O)(=O)Nc2ccc(NC(=O)c3cc([N+](=O)[O-])ccc3Cl)cc2)cc1` [Example 32, N-[4-(4-Methylbenzene)sulfonylaminophenyl]-(2-chloro-5-nitrophenyl)carboxamide]: the “Inhibition Rate (%) against the colony forming activity” value in assay [1] is recorded as 39.0%.
In the case of `O=C(Nc1nc2ccc([N+](=O)[O-])cc2s1)c1cc([N+](=O)[O-])ccc1Cl` [Example 34, N-(6-Nitrobenzothiazol-2-yl)-(2-chloro-5-nitrophenyl)carboxamide], the inhibition at 1 µM in assay [1] amounted to 41%.
Consider `O=C(Nc1ccncc1)c1cc([N+](=O)[O-])ccc1Cl` [Example 49, N-(4-Pyridyl)-(2-chloro-5-nitrophenyl)carboxamide], for which the inhibition in vivo at 10000 µg/mL, 100 mg/kg stood at 59% with Balb/c mice (setting [2]) and 61% in the assay on Balb/c mice (setting [3]).
For `O=C(Nc1cnc2ccccc2c1)c1cc([N+](=O)[O-])ccc1Cl` [Example 55, N-(3-Quinolinyl)-(2-chloro-5-nitrophenyl)carboxamide], the inhibition at 1 µM in assay [1] was 8%.
`O=C(Nc1nccc2ccccc12)c1cc([N+](=O)[O-])ccc1Cl` [Example 59, N-(Isoquinolin-1-yl)-(2-chloro-5-nitrophenyl)carboxamide]: the inhibition in vivo at 10000 µg/mL, 100 mg/kg in the assay with Balb/c mice (setting [2]) was determined as 18.7%; with Balb/c mice (setting [3]) it was 20.5%. Besides, in assay [1], the inhibition at 1 µM came out at 94%.
Consider `O=C(Nc1nc2cc(Cl)ccc2o1)c1cc([N+](=O)[O-])ccc1Cl` [Example 75, N-(5-Chlorobenzoxazol-2-yl)-(2-chloro-5-nitrophenyl)carboxamide], for which the inhibition at 1 µM in assay [1] is 65%.
Still for that read-out and setting: with `O=C(Nc1ncc(Br)cn1)c1cc([N+](=O)[O-])ccc1Cl` [Example 77, N-(5-Bromopyrimidin-2-yl)-(2-chloro-5-nitrophenyl)carboxamide] the figure was 1%.
For the compound `Nc1ccc(-c2ccc(NC(=O)c3cc([N+](=O)[O-])ccc3Cl)cc2)cc1` [Example 88, N-[4-(4-Aminophenyl)phenyl]-(2-chloro-5-nitrophenyl)carboxamide mono-hydrochloride], the results for the inhibition in vivo at 10000 µg/mL, 100 mg/kg in the assay with Balb/c mice (setting [2]) and with Balb/c mice (setting [3]) were 42.3% and 57%, respectively. Further, the inhibition at 1 µM in assay [1] stood at 8%.
Regarding `Cc1c(C)c2c(c(C)c1O)C(=O)CC(C)(COc1ccc(NC(=O)c3cc([N+](=O)[O-])ccc3Cl)cc1)O2` (stereo not shown) [Example 92, N-[4-(6-Hydroxy-2,5,7,8-tetramethyl-4-oxochroman-2-ylmethoxy)phenyl]-(2-chloro-5-nitrophenyl)carboxamide], the inhibition at 1 µM in assay [1] is 15%.
Regarding `CS(=O)(=O)Nc1ccc(-c2ccc(NC(=O)c3cc([N+](=O)[O-])ccc3Cl)cc2)cc1` [Example 93, N-[4-[4-(Methanesulfonylamino)phenyl]phenyl]-(2-chloro-5-nitrophenyl)carboxamide], the inhibition at 1 µM in assay [1] turned out to be 44%.
Still for that read-out and setting: then `Cc1nnc(NS(=O)(=O)c2ccc(NC(=O)c3cc([N+](=O)[O-])ccc3Cl)cc2)s1` [Example 101, N-[4-[(5-Methyl-[1,3,4]thiadiazol-2-yl)aminosulfonyl]phenyl]-(2-chloro-5-nitrophenyl)carboxamide], with 32%.
Turning to `Cc1noc(NS(=O)(=O)c2ccc(NC(=O)c3cc([N+](=O)[O-])ccc3Cl)cc2)c1C` [Example 104, N-[4-[(3,4-Dimethylisoxazol-6-yl)aminosulfonyl]phenyl]-(2-chloro-5-nitrophenyl)carboxamide], the inhibition at 1 µM in assay [1] amounted to 22%.
With `O=C(Nc1ccc(N2CCCCC2)cc1)c1cc([N+](=O)[O-])ccc1Cl` [Example 114, N-[4-(Piperidin-1-yl)phenyl]-(2-chloro-5-nitrophenyl)carboxamide], the inhibition in vivo at 10000 µg/mL, 100 mg/kg in the assay with Balb/c mice (setting [2]) came out at 32.8%; in the assay on Balb/c mice (setting [3]), 50.5%. The inhibition at 1 µM in assay [1] is 22%.
For `CC(=O)Nc1ccc(-c2ccc(NC(=O)c3cc([N+](=O)[O-])ccc3Cl)cc2)cc1` [Example 118, N-[4-(4-Acetylaminophenyl)phenyl]-(2-chloro-5-nitrophenyl)carboxamide], in that order: 55.8%, 45% and 41%.
Turning to `O=C(Nc1ccc(-c2ccc(NC(=O)c3cc([N+](=O)[O-])ccc3Cl)cc2)cc1)c1ccccc1` [Example 120, N-[4-(4-Benzoylaminophenyl)phenyl]-(2-chloro-5-nitrophenyl)carboxamide], the inhibition at 1 µM in assay [1] came to 44%.
`Cc1ccc2nc(NC(=O)c3cc([N+](=O)[O-])ccc3Cl)sc2c1` [Example 141, N-(6-Methybenzothiazol-2-yl)-(2-chloro-5-nitrophenyl)carboxamide]: the “Inhibition Rate (%) against the colony forming activity” value in assay [1] is on record as 47.0%.
With `CCc1ccc(S(=O)(=O)Nc2ccc(NC(=O)c3cc([N+](=O)[O-])ccc3Cl)cc2)cc1` [Example 150, N-[4-(4-Ethylbenzenesulfonylamino)phenyl]-(2-chloro-5-nitrophenyl)carboxamide], in assay [1], the inhibition at 1 µM was found to be 41%.
Turning to `CC(=O)c1cccc(NC(=O)c2cc([N+](=O)[O-])ccc2Cl)c1` [Example 156, N-(3-Acetylphenyl)-(2-chloro-5-nitrophenyl)carboxamide], the inhibition in vivo at 10000 µg/mL, 100 mg/kg was 85.5% with Balb/c mice (setting [2]) and 82.6% in the assay on Balb/c mice (setting [3]).
The like results for `O=C(Nc1ccc(C(=O)N2CCCCC2)cc1)c1cc([N+](=O)[O-])ccc1Cl` [Example 159, N-[4-(Piperidylcarbonyl)phenyl]-(2-chloro-5-nitrophenyl)carboxamide] were, in that order, 78.7% and 91.2%.
The like results for `CC(C)(C)c1cc(NS(=O)(=O)c2cccc(NC(=O)c3cc([N+](=O)[O-])ccc3Cl)c2)cc(C(C)(C)C)c1O` [Example 161, N-[3-[(3,5-di-tert-Butyl-4-hydroxyphenyl)aminosulfonyl]phenyl]-(2-chloro-5-nitrophenyl)carboxamide] were, in that order, 82.8% and 69.3%.
On to “N-[4-[4-(Pyrrolidin-1-ylamino)phenyl]phenyl]-(2-chloro-5-nitrophenyl)carboxamide [Example 171]”, for which, in the assay on Balb/c mice (oral), the “Preventing rate against liver injury, ALT (%)” value worked out at 90.0% and the “Preventing rate against liver injury, AST (%)” value was determined as 102.8%.

The record behind these values is patent publication US20030134859A1 (SANKYO COMPANY, LIMITED, priority 2000, published 2003).
